Usually melting point stands for the temperature, or range, at which the solid turns liquid.

Each structure is given as a SMILES string.

The molecule `O=[N+]([O-])c1ccc(COP(=O)(COS(=O)(=O)C(F)(F)F)OCc2ccc([N+](=O)[O-])cc2)cc1` came in with a melting point of 73 to 75 °C.
The result for `COC(=O)C12CCc3cc(Cl)ccc3C1=NN(C(=O)Nc1ccc(C(F)(F)F)cc1)C2` (stereo not drawn) reads 234 to 236 °C; that for `Nc1c(Nc2ccc(O)cc2)ncnc1-c1ccc(C(F)(F)F)cc1F`, 194 to 196 °C.
The result for `O=c1c2c(Cl)cccc2nc(CSc2ncnc3[nH]cnc23)n1-c1ccccc1Cl` reads 234 °C.
The result for `O=C(Nc1cccc(C(F)(F)F)c1)Nc1ccc(Oc2ncnc3ccn(CCOCCO)c23)cc1Cl` reads 170 to 174 °C; that for `Cc1cn(C(C)C(=O)N2CCOCC2)nc1-c1ccccc1` (stereo not drawn), 84 to 96 °C; that for `COC(=O)c1nc(-c2ccc(F)c(C)c2F)cc(NC(C)=O)c1Cl`, 152 to 153 °C.
The molecule `Cn1cc(S(C)=O)c(=O)c2sc(-c3cccc(Cl)c3)cc21` (stereo not drawn) yielded a melting point of 249 to 251 °C.
The result for `Cc1ccc2c(c1)S(=O)(=O)CC(COC(=O)Nc1ccccc1)(COC(=O)Nc1ccccc1)C2=O` reads 85 to 95 °C; that for `CCC1CCCCN1C(=O)c1cc2ccccc2c(-c2ccccc2)n1` (stereo not drawn), 86 °C.
The result for `Cc1nc(C(C)(O)c2ccsc2)c(C)o1` (stereo not drawn) reads 83 to 84 °C; that for `CSC1C(=O)Nc2c(C(=O)c3ccc(F)cc3)cc(Cl)cc21` (stereo not drawn), 202 to 204 °C.
The result for `CC(C)(C)C(=O)Nc1c(F)cc(F)cc1Oc1ccc(C(C)(C)C(N)=O)cc1` reads 169 to 170 °C; that for `N#CN1CCC(c2nn(-c3ccccc3F)c3ccccc23)CC1`, 119 to 121 °C.
In turn, `CC(=O)OCC1OC(n2c(=O)sc3c(Cl)nc(Cl)nc32)C(OC(C)=O)C1OC(C)=O` (stereo not drawn) yielded a melting point of 125 to 126 °C.
The result for `O=C(CCN1CCN(Cc2ccccc2)CC1)c1ccc2oc3ccccc3c2c1` reads 135 to 136 °C.
The result for `CCCNc1nc(-c2ccccc2)c(-c2ccc(=O)n(C(C)C)n2)s1` reads 165 to 166 °C; that for `O=C(O)c1cccc(CN2C(=O)C3(COc4cc5c(cc43)CCO5)c3ccccc32)c1` (stereo not drawn), above 250 °C.
As to `O=C1NC(=O)c2c1c(-c1ccccc1Cl)cc1c2c2cc(O)ccc2n1CCSc1ccccc1`, the melting point was 262 to 264 °C.
The result for `Cc1sc(C)c(CCl)c1CCl` reads 68 to 70 °C; that for `CCNC(=O)c1cccc(C2(c3ccc(OC(F)(F)F)cc3)N=C(N)N3CCCN=C32)c1` (stereo not drawn), 129 to 136 °C; that for `CC(C(=O)O)c1ccc(C(=O)c2ccc(Cl)cc2)n1C` (stereo not drawn), 139 to 141 °C.
The result for `O=C(NCc1cccc(C(F)(F)F)c1)c1sc2ccccc2c1O` reads 139 to 141 °C; that for `Cc1cc(Nc2ccnc(Nc3ccc(S(=O)(=O)N(C)C4CCCN(C)C4)cc3)n2)ccc1F` (stereo not drawn), 188 °C; that for `O=C(O)CC(C(=O)O)c1ccn2c(=O)c(C(=O)O)ccc2c1` (stereo not drawn), 250 °C.
The result for `Cc1ccc(-c2c(C(=O)NCc3ccccc3)n(CC[C@@H](C)CO)c(=O)c3ncccc23)cc1` reads 226 to 227 °C; that for `Cc1cc(OC(=O)c2ccccc2)ccc1O`, 120 to 122 °C.
With `COc1ccc2oc(CC3CCCCC3)c(CC#N)c2c1`, the melting point was 73 °C.
Take `N#CCCNC(=O)c1cccc(-c2ccc3c(c2)C(Oc2ccc(Cl)cc2Cl)CC3)c1` (stereo not drawn): the melting point was in the range of 139 to 145 °C.
Take `CC(=Cc1ccccc1)c1ccc2c(c1)C(C)(C)CCC2(C)C`: the melting point fell in the range of 83 to 85 °C.
The result for `O=c1[nH]ncc2c(OCC3CO3)cccc12` (stereo not drawn) reads 173 to 174 °C; that for `O=C(O)CCC=C(c1ccc(F)cc1)c1ccc(F)cc1`, 100 °C; that for `COc1ccc(Cn2ncc3nc(Cl)nc(Cl)c32)cc1`, 100 to 101 °C.
The result for `Cc1cn(COCCO)c(=O)[nH]c1=O` reads 138 to 140 °C; that for `C#CCN1C(=O)COc2cc(F)c(N(C(C)=O)C(=O)C3=C(C(=O)OC)CCCC3)cc21`, 153 to 154 °C.
In turn, `COC(=O)c1cc2cc(SCc3sc(-c4ccc(C(F)(F)F)cc4)nc3C)ccc2o1` displayed a melting point of 132 to 133 °C.
The result for `CCC(Nc1ncnc2[nH]cnc12)c1oc2cccc(F)c2c(=O)c1-c1ccccc1` (stereo not drawn) reads 210 to 212 °C.
The result for `O=C(CBr)N[C@H](Cc1ccc(C(F)(F)F)cc1)[C@@H](O)c1ccc(F)cc1` (racemic) reads 151 to 152 °C.
The result for `CC1(O)CC(=O)OC(c2ccc(-c3ccccc3)cc2)C1` (stereo not drawn) reads 151 to 153 °C.
The molecule `CON=Cc1ccccc1OCc1ccccc1C(=NOC)C(=O)OC` came in with a melting point of 73 to 76 °C.
The result for `N#CCNC(=O)c1ccco1` reads 85 to 93 °C.
The result for `CC(C)(C)OC(=O)CC1(O)CCc2c([nH]c3ccccc23)C1=O` (stereo not drawn) reads 156 to 157 °C; that for `Nc1c(Cl)cc(C(O)CNCCCCCOCCc2ccccn2)cc1Cl` (stereo not drawn), 140 to 142 °C; that for `CN(C)C(=O)[C@H]1C[C@H]1C(=O)N(C)C`, 103 to 104 °C.
The result for `O=C(O)CCc1c([N+](=O)[O-])cc(O)c(O)c1[N+](=O)[O-]` reads 162 to 165 °C; that for `Cc1cc(C)cc(C(=O)N(N(C(=O)c2ccc3c(c2C)OCCO3)C(=O)N(C)C)C(C)(C)C)c1`, 60 to 64 °C; that for `CN(Cc1cc(C(F)(F)F)cc(C(F)(F)F)c1)C(=O)c1nc(NCc2ccccc2)ncc1-c1ccccc1`, 128 to 130 °C.
Molecule `CCCCCCC(=O)CCCC(=O)O` gave a melting point of 58 to 59 °C.
The result for `CCCCCCCCCCCCCCCCCCC(N=C(c1ccccc1)c1ccccc1)C(=O)OCC` (stereo not drawn) reads 62 to 65 °C.
The result for `N#Cc1ccc(-c2ccc(O)c(-c3nc4cc(C#N)ccc4[nH]3)c2)cc1` reads above 340 °C; that for `COc1ccc(C(=O)Nc2ccccc2)cc1NS(=O)(=O)c1cccc([N+](=O)[O-])c1`, 208 to 210 °C.
The result for `COc1ccnc(N2CCN(C(=O)c3cccs3)CC2)n1` reads 143 to 145 °C; that for `O=C1COC(=O)C1=Cc1cccc(C(F)(F)F)c1`, 108 to 109 °C.
Molecule `COC(=O)Nc1ccc(-c2ncn(-c3ccc(OC(F)(F)C(F)(F)F)cc3)n2)cc1` came in with a melting point of 183 to 184 °C.
`CC(C)c1cccc(COCCO)c1NC(=O)CC1c2ccccc2Oc2ccccc21`: the melting point lay within 153 to 154 °C.
The result for `COc1cc(C)c(OC)cc1C` reads 108 to 110 °C; that for `CCOC(=O)c1nc(C(=O)OCC)nc(C(=O)OCC)n1`, 169 to 170 °C.
The result for `OCc1cccc(Nc2nc(Oc3ccccc3)nc(Oc3ccccc3Cl)n2)c1` reads 52 to 54 °C.
`CC(=O)Nc1cc([N+](=O)[O-])ccc1O` yielded a melting point of 283 to 284 °C.
The result for `O=C(O)C1=Cc2c(Cl)ccc(Cl)c2OC1C(F)(F)F` (stereo not drawn) reads 206 to 207 °C; that for `CCCn1c(=Nc2ccc(C(=O)OCC)cc2)sc2ncccc2c1=O`, 115 to 117 °C.
Molecule `CCCCCCCCCCCCCCCCOCC1=CCCO1` gave a melting point of 30.5 to 31.5 °C.
The result for `CCCc1cc([N+](=O)[O-])cc2cc(C(=O)OCC)oc12` reads 111 °C; that for `CCOC(=O)N1CCc2nc3ccccc3c(O)c2CC1`, 252 °C; that for `CCc1nnc(-c2ccc(O)cc2)n1-c1ccc(O)cc1`, 317 to 318 °C.
The result for `COc1ccc(NC(=O)c2cc(O[Si](C)(C)C(C)(C)C)ccc2NC(=O)c2ccc(C(C)(C)C)cc2)cc1` reads 207 °C; that for `CCOC(=O)C(C)Oc1ccc(Oc2cnc3ccc(Cl)cc3c2)cc1` (stereo not drawn), 98 °C.
The result for `CCCNC(=O)COC1c2ccccc2C(=O)N1c1ccc2ccc(OC)nc2n1` (stereo not drawn) reads 174 °C; that for `Cn1c(CO)nc2cncnc21`, 122 to 125 °C.
Regarding `O=S(=O)(c1ccc(Cl)cc1)C(c1ccncc1)C1CCCC1` (stereo not drawn), the melting point lay within 133 to 135 °C.
The result for `O=C(O)CN1CC2(CCCCC2)CC1=O` reads 122 to 124 °C; that for `COc1cc2c(cc1OCc1ccccc1)CCC(=O)N2Cc1cc(OC)c(OC)c(OC)c1`, 129 to 130 °C.
As to `CCCC#Cc1cnc(-c2ccc(F)cc2)nc1`, the melting point amounted to 51 °C.
Consider `CN1CCN(c2cc(Br)cc3c2c(=O)n(Cc2ccccc2Cl)c(=O)n3Cc2ccccc2)CC1`, for which the melting point lay within 104 to 108 °C.
In turn, `Nc1c(-c2ccccc2)c(=O)[nH]c2cc(Cl)ccc12` yielded a melting point of 337 to 338 °C.
Molecule `COC(=O)c1cc2cc(C=O)ccc2[nH]1` yielded a melting point of 208 °C.
The result for `CN1CCCCC1CCc1ccccc1NC(=O)c1ccc(F)cc1` (stereo not drawn) reads 116 °C; that for `COC(=O)c1ccc(CN(Cc2cc(Br)ccc2OCc2ccccc2)c2ccc(C(=O)OC(C)(C)C)cc2)cc1`, 154 to 155 °C; that for `CCOC(=O)c1nn(-c2cccc(Cl)c2)c(=O)c2c1c1ccc(Cl)cc1n2C`, 236 to 238 °C.
`CCOC(=O)c1cccc2nc(OC)n(Cc3ccc(-c4ccccc4C#N)cc3)c12` came in with a melting point of 160 to 161 °C.
`N#Cc1c(-c2ccccc2)cc(N2CCOCC2)nc1Cl` registered a melting point of 198 to 200 °C.
The result for `O=C1N(c2ccc(Br)cc2)C(Cl)(Cl)C2CCCCC12Cl` (stereo not drawn) reads 148 to 150 °C.
The result for `CC(=O)NC1(c2ccccc2)CCN(CC[C@@H](c2ccc(Cl)c(Cl)c2)[C@@H](O)c2cnnn2-c2ccccc2)CC1` (racemic) reads 125 to 128 °C; that for `COc1ccccc1COC(=O)c1ncn2c1[C@@H]1CCCN1C(=O)c1c(Cl)cccc1-2`, 178 to 179 °C.
The result for `CCCCc1c(C(=O)OCC)cc(O)c2ccc(OC)cc12` reads 112 to 115 °C.
Regarding `CSc1cc2c(cc1C(F)(F)F)N(C(=O)Nc1ccc(CO)cc1)CC2`, the melting point lay in the range of 184 to 187 °C.
`O=C(NO)c1ccc(CNC(=O)c2[nH]c(-c3cccs3)cc2-c2ccc(O)cc2)cc1` had a melting point of 171 to 172 °C.
The result for `COCOC1=C(C(N)=O)CC(C#N)(c2cccc(OCC3CC3)c2)CC1` (stereo not drawn) reads 120 to 122 °C.

The values above are taken from a melting point compilation (Tetko et al.; mined from patent text by program, amines drawn as free bases though some values may be those of a salt).
